Measurements: ChEMBL document CHEMBL1212876, “Characterization of new PPARgamma agonists: benzimidazole derivatives-importance of positions 5 and 6, and computational studies on the binding mode” (Bioorg Med Chem, 2010)

How the values were obtained:
[1] = Induction of adipocyte differentiation in mouse 3T3-L1 cells at 10 uM
[2] = target: T1, Peroxisome proliferator-activated receptor gamma (Homo sapiens, UniProt P37231)
T1 sequence (P37231 whole entry): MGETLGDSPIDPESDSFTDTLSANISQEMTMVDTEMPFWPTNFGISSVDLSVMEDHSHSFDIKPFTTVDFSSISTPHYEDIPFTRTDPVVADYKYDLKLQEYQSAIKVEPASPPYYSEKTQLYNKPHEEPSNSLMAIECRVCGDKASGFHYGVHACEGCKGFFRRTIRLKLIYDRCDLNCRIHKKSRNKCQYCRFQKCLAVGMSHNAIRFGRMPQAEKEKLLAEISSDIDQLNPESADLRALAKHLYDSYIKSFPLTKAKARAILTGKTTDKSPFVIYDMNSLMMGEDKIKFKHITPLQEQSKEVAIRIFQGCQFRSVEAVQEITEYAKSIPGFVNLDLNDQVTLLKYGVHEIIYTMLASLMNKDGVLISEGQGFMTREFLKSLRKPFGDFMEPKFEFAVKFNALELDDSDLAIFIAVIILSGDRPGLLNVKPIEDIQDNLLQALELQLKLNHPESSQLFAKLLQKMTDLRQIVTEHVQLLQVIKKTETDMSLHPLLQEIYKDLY
Description: Activation of Gal4-tagged human PPARgamma expressed in CHO cells by luciferase reporter gene assay

Compound	EC50 [2]	Activity [1]
CCCc1nc2cc(C(=O)c3ccccc3)ccc2n1Cc1ccc(-c2ccccc2C(=O)O)cc1	580 nM	104%
CCc1ccc(CCOc2ccc(CC3SC(=O)NC3=O)cc2)nc1 (stereo not given) [PIOGLITAZONE]	–	100%
CCCc1nc2c(C)cc(-c3nc4ccccc4n3C)cc2n1Cc1ccc(-c2ccccc2C(=O)O)cc1	3400 nM	70%
CCCc1nc2ccc(C(=O)c3ccccc3)cc2n1Cc1ccc(-c2ccccc2C(=O)O)cc1	620 nM	97%
CCCc1nc2cc(Br)ccc2n1Cc1ccc(-c2ccccc2C(=O)O)cc1	–	103%
CCCc1nc2cc3ccccc3cc2n1Cc1ccc(-c2ccccc2C(=O)O)cc1	260 nM	105%

The next lines start with results.

EC50 [2]	Compound	Activity [1]
3500 nM	CCCc1nc2ccc(C(O)c3ccccc3)cc2n1Cc1ccc(-c2ccccc2C(=O)O)cc1 (stereo not given)	88%
400 nM	CCCc1nc2cc(Br)c(Br)cc2n1Cc1ccc(-c2ccccc2C(=O)O)cc1	74%
470 nM	CCCc1nc2ccc(Br)cc2n1Cc1ccc(-c2ccccc2C(=O)O)cc1	102%
2900 nM	CCCc1nc2cc(C(O)c3ccccc3)ccc2n1Cc1ccc(-c2ccccc2C(=O)O)cc1 (stereo not given)	100%
1900 nM	CCCc1nc2ccccc2n1Cc1ccc(-c2ccccc2C(=O)O)cc1	67%
